The values below come from ChEMBL document CHEMBL1154724, “Synthesis and antimicrobial activity evaluation of new 1,2,4-triazoles and 1,3,4-thiadiazoles bearing imidazo[2,1-b]thiazole moiety” (2010).

In brackets after ≈: the same amount, converted by molar mass. Activity calls are given as the source filed them. The calls are words filed in the database; no cut-off is given here.

What all share (type): functional
One assay deals with Staphylococcus aureus. The experiment in a line: Antibacterial activity against Staphylococcus aureus ATCC 29213 after 16 to 20 hrs by microbroth dilution method. On the technique in general: In broth dilution the organism is exposed to a series of concentrations in liquid medium.
For another assay, the system named is Pseudomonas aeruginosa. The experiment in a line: Antibacterial activity against Pseudomonas aeruginosa ATCC 27853 after 16 to 20 hrs by microbroth dilution method.
In another assay the test system is Escherichia coli. The experiment in a line: Antibacterial activity against Escherichia coli ATCC 25922 after 16 to 20 hrs by microbroth dilution method.
The next assay deals with Candida albicans. The assay can be described thus: Antifungal activity against Candida albicans ATCC 10231 after 48 hrs by microbroth dilution method. Particulars: ATCC 10231, 48 h.
The test system of a further assay is Candida parapsilosis. The assay can be described thus: Antifungal activity against Candida parapsilosis ATCC 22019 after 48 hrs by microbroth dilution method. Conditions: Lodderomyces parapsilosis, ATCC 22019, 48 h.
A further assay concerns Pichia kudriavzevii. The experiment in a line: Antifungal activity against Candida krusei ATCC 6258 after 48 hrs by microbroth dilution method. Particulars: ATCC 6258, 48 h.
For the next assay, the system named is Nannizzia gypsea. The experiment in a line: Antifungal activity against Microsporum gypseum NCPF 580 after 7 days by microbroth dilution method. Conditions: NCPF 580, 168 h, read-out: MIC100.
The subject of a further assay is Trichophyton tonsurans. The experiment in a line: Antifungal activity against Trichophyton tonsurans NCPF 245 after 7 days by microbroth dilution method. Conditions: NCPF 245, 168 h, read-out: MIC100.
Another assay concerns Trichophyton erinacei. The experiment in a line: Antifungal activity against Trichophyton mentagrophytes var. erinacei NCPF 375 after 7 days by microbroth dilution method. Conditions: NCPF 375, 168 h, read-out: MIC100.
Assay [1] relates to Mycobacterium tuberculosis. The experiment in a line: Antimycobacterial activity against Mycobacterium tuberculosis H37Rv ATCC 27294 by microplate alamar blue assay. For orientation: Alamar Blue is a resazurin reagent that responds to reducing activity.
The mark [2] stands for this setting: Mycobacterium tuberculosis, H37Rv ATCC 27294.

`CNc1nnc(Cc2csc3nc(-c4ccc(Br)cc4)cn23)s1`: the MIC was > 64 µg/mL with Staphylococcus aureus; > 64 µg/mL with Pseudomonas aeruginosa; > 64 µg/mL against Escherichia coli; 32 µg/mL (≈ 78.8 µM) against Candida albicans; 16 µg/mL (≈ 39.4 µM) against Candida parapsilosis; 16 µg/mL (≈ 39.4 µM) with Pichia kudriavzevii. For the same compound, the MIC was determined as 16 µg/mL (≈ 39.4 µM) with Nannizzia gypsea, 8 µg/mL (≈ 19.7 µM) in the assay with Trichophyton tonsurans and 16 µg/mL (≈ 39.4 µM) with Trichophyton erinacei.
Consider `CCn1c(Cc2csc3nc(-c4ccc(Br)cc4)cn23)n[nH]c1=S`, for which the MIC was 64 µg/mL (≈ 152 µM) in the assay on Staphylococcus aureus; > 64 µg/mL against Pseudomonas aeruginosa; 64 µg/mL (≈ 152 µM) with Escherichia coli; 32 µg/mL (≈ 76.1 µM) in the assay on Candida albicans; 32 µg/mL (≈ 76.1 µM) against Candida parapsilosis; 32 µg/mL (≈ 76.1 µM) in the assay on Pichia kudriavzevii. The MIC amounted to 16 µg/mL (≈ 38.1 µM) in the assay with Nannizzia gypsea, 8 µg/mL (≈ 19 µM) in the assay with Trichophyton tonsurans and 16 µg/mL (≈ 38.1 µM) with Trichophyton erinacei. Besides, the inhibition entry in assay [1] was “inactive”. The MIC90 (as a rule, an inhibitory concentration at the 90% level, which refers to growth in some studies and to a panel of isolates in others) in [1] (setting [2]) was > 6.25 µg/mL.
For the compound `CO[C@H]1/C=C/O[C@@]2(C)Oc3c(C)c(O)c4c(O)c(c(/C=N/N5CCN(C)CC5)c(O)c4c3C2=O)NC(=O)/C(C)=C\C=C\[C@H](C)[C@H](O)[C@@H](C)[C@@H](O)[C@@H](C)[C@H](OC(C)=O)[C@@H]1C` [RIFAMPIN], the “inhibition (INH)” value in assay [1] was found to be 97%. Further, in assay [1] (Mycobacterium tuberculosis, H37Rv ATCC 27294, read-out: MIC100), the MIC stood at 0.25 µg/mL (≈ 0.304 µM).
Take `C=CCn1c(Cc2csc3nc(-c4ccc(Br)cc4)cn23)n[nH]c1=S`: the MIC in the assay with Staphylococcus aureus is > 64 µg/mL; against Pseudomonas aeruginosa, > 64 µg/mL; against Escherichia coli, > 64 µg/mL; in the assay with Candida albicans, 64 µg/mL (≈ 148 µM); with Candida parapsilosis, 64 µg/mL (≈ 148 µM); against Pichia kudriavzevii, 64 µg/mL (≈ 148 µM). For the same compound, the MIC in the assay on Nannizzia gypsea came out at 64 µg/mL (≈ 148 µM); in the assay on Trichophyton tonsurans it was 32 µg/mL (≈ 74 µM); with Trichophyton erinacei, 64 µg/mL (≈ 148 µM). The “inhibition (INH)” value in assay [1] came to 1%. The MIC90 in assay [1] (setting [2]) was > 6.25 µg/mL.
As to `S=c1[nH]nc(Cc2csc3nc(-c4ccc(Br)cc4)cn23)n1-c1ccc(Cl)cc1`, the MIC was > 64 µg/mL against Staphylococcus aureus; > 64 µg/mL in the assay with Pseudomonas aeruginosa; > 64 µg/mL with Escherichia coli; 64 µg/mL (≈ 127 µM) against Candida albicans; > 64 µg/mL with Candida parapsilosis; 64 µg/mL (≈ 127 µM) in the assay with Pichia kudriavzevii. The MIC in the assay on Nannizzia gypsea, with Trichophyton tonsurans and in the assay with Trichophyton erinacei was 32 µg/mL (≈ 63.6 µM) in each case. The inhibition entry in [1] was “inactive”. In assay [1] (setting [2]), the MIC90 is > 6.25 µg/mL.
Consider `CCNc1nnc(Cc2csc3nc(-c4ccc(Br)cc4)cn23)s1`, for which the MIC in the assay with Staphylococcus aureus was found to be 64 µg/mL (≈ 152 µM); in the assay on Pseudomonas aeruginosa it was 64 µg/mL (≈ 152 µM); with Escherichia coli, 32 µg/mL (≈ 76.1 µM); with Candida albicans, 64 µg/mL (≈ 152 µM); against Candida parapsilosis, 64 µg/mL (≈ 152 µM); with Pichia kudriavzevii, 32 µg/mL (≈ 76.1 µM). Moreover, the figures for the MIC in the assay on Nannizzia gypsea, in the assay with Trichophyton tonsurans and with Trichophyton erinacei were 16 µg/mL (≈ 38.1 µM), 8 µg/mL (≈ 19 µM) and 16 µg/mL (≈ 38.1 µM), respectively.
Turning to `C[C@H]1COc2c(N3CCN(C)CC3)c(F)cc3c(=O)c(C(=O)O)cn1c23.C[C@H]1COc2c(N3CCN(C)CC3)c(F)cc3c(=O)c(C(=O)O)cn1c23.O` [LEVOFLOXACIN], the MIC in the assay on Staphylococcus aureus came to 0.12 µg/mL; with Pseudomonas aeruginosa it was 0.5 µg/mL.
With `S=c1[nH]nc(Cc2csc3nc(-c4ccc(Br)cc4)cn23)n1-c1ccc(Br)cc1`, the MIC in the assay on Staphylococcus aureus was > 64 µg/mL; in the assay on Pseudomonas aeruginosa it was > 64 µg/mL; in the assay with Escherichia coli, > 64 µg/mL; with Candida albicans, 64 µg/mL (≈ 117 µM); against Candida parapsilosis, 32 µg/mL (≈ 58.5 µM); against Pichia kudriavzevii, 64 µg/mL (≈ 117 µM). Moreover, the results for the MIC with Nannizzia gypsea, in the assay with Trichophyton tonsurans and with Trichophyton erinacei were 64 µg/mL (≈ 117 µM), 32 µg/mL (≈ 58.5 µM) and 64 µg/mL (≈ 117 µM), respectively. Also, the inhibition entry in [1] is “inactive”. In addition, the MIC90 in assay [1] (setting [2]) was > 6.25 µg/mL.
With `CCCCn1c(Cc2csc3nc(-c4ccc(Br)cc4)cn23)n[nH]c1=S`, the MIC in the assay with Staphylococcus aureus amounted to 32 µg/mL (≈ 71.4 µM); against Pseudomonas aeruginosa, 64 µg/mL (≈ 143 µM); against Escherichia coli, 32 µg/mL (≈ 71.4 µM); in the assay on Candida albicans, 32 µg/mL (≈ 71.4 µM); with Candida parapsilosis it was 64 µg/mL (≈ 143 µM); in the assay with Pichia kudriavzevii, 64 µg/mL (≈ 143 µM). Further, the MIC with Nannizzia gypsea, in the assay with Trichophyton tonsurans and with Trichophyton erinacei was 32 µg/mL (≈ 71.4 µM) throughout. Besides, in assay [1], the inhibition result was “inactive”. Moreover, the MIC90 in assay [1] (setting [2]) is > 6.25 µg/mL.
For `Cc1ccc(-n2c(Cc3csc4nc(-c5ccc(Br)cc5)cn34)n[nH]c2=S)cc1`, the MIC amounted to 64 µg/mL (≈ 133 µM) against Staphylococcus aureus; 64 µg/mL (≈ 133 µM) in the assay on Pseudomonas aeruginosa; 64 µg/mL (≈ 133 µM) in the assay with Escherichia coli; 16 µg/mL (≈ 33.2 µM) against Candida albicans; 16 µg/mL (≈ 33.2 µM) against Candida parapsilosis; 16 µg/mL (≈ 33.2 µM) in the assay with Pichia kudriavzevii. The MIC in the assay on Nannizzia gypsea, in the assay with Trichophyton tonsurans and in the assay with Trichophyton erinacei was 16 µg/mL (≈ 33.2 µM) each time. In assay [1], the “inhibition (INH)” value is listed as 4%. Further, in assay [1] (setting [2]), the MIC90 is > 6.25 µg/mL.
On to `C[C@@H]1[C@H](O)[C@@H](C)/C=C/C=C/C=C/C=C/C=C/C=C/C=C/[C@H](O[C@@H]2O[C@H](C)[C@@H](O)[C@H](N)[C@@H]2O)C[C@@H]2O[C@](O)(C[C@@H](O)C[C@@H](O)[C@H](O)CC[C@@H](O)C[C@@H](O)CC(=O)O[C@H]1C)C[C@H](O)[C@H]2C(=O)O` [AMPHOTERICIN B], for which the MIC worked out at 0.5 µg/mL (≈ 0.541 µM) with Nannizzia gypsea, 0.25 µg/mL (≈ 0.271 µM) in the assay on Trichophyton tonsurans and 0.5 µg/mL (≈ 0.541 µM) in the assay with Trichophyton erinacei.
Consider `CCC(C)n1ncn(-c2ccc(N3CCN(c4ccc(OCC5COC(Cn6cncn6)(c6ccc(Cl)cc6Cl)O5)cc4)CC3)cc2)c1=O` (configuration not stated) [ITRACONAZOLE], for which the MIC in the assay with Candida albicans is 0.12 µg/mL (≈ 0.17 µM); against Candida parapsilosis it was 0.06 µg/mL (≈ 0.085 µM); in the assay with Pichia kudriavzevii it was 0.12 µg/mL (≈ 0.17 µM).
Take `CCCn1c(Cc2csc3nc(-c4ccc(Br)cc4)cn23)n[nH]c1=S`: the MIC is 64 µg/mL (≈ 147 µM) in the assay with Staphylococcus aureus; > 64 µg/mL with Pseudomonas aeruginosa; 64 µg/mL (≈ 147 µM) in the assay on Escherichia coli; 32 µg/mL (≈ 73.7 µM) against Candida albicans; 64 µg/mL (≈ 147 µM) against Candida parapsilosis; 64 µg/mL (≈ 147 µM) in the assay with Pichia kudriavzevii. In addition, the MIC with Nannizzia gypsea came out at 16 µg/mL (≈ 36.8 µM); with Trichophyton tonsurans, 8 µg/mL (≈ 18.4 µM); in the assay on Trichophyton erinacei, 16 µg/mL (≈ 36.8 µM). In assay [1], the inhibition result was “inactive”. For the same compound, the MIC90 in [1] (setting [2]) was > 6.25 µg/mL.
As for `Cn1c(Cc2csc3nc(-c4ccc(Br)cc4)cn23)n[nH]c1=S`, the MIC is > 64 µg/mL in the assay with Staphylococcus aureus; > 64 µg/mL with Pseudomonas aeruginosa; > 64 µg/mL in the assay with Escherichia coli; 32 µg/mL (≈ 78.8 µM) with Candida albicans; 32 µg/mL (≈ 78.8 µM) with Candida parapsilosis; 32 µg/mL (≈ 78.8 µM) in the assay on Pichia kudriavzevii. For the same compound, the MIC with Nannizzia gypsea amounted to 16 µg/mL (≈ 39.4 µM); in the assay with Trichophyton tonsurans, 16 µg/mL (≈ 39.4 µM); in the assay with Trichophyton erinacei, 8 µg/mL (≈ 19.7 µM). Further, the inhibition entry in [1] is “inactive”. In addition, the MIC90 in assay [1] (setting [2]) was > 6.25 µg/mL.
For the compound `S=c1[nH]nc(Cc2csc3nc(-c4ccc(Br)cc4)cn23)n1-c1ccccc1`, the MIC in the assay with Staphylococcus aureus is 64 µg/mL (≈ 137 µM); against Pseudomonas aeruginosa, > 64 µg/mL; against Escherichia coli, > 64 µg/mL; against Candida albicans, 32 µg/mL (≈ 68.3 µM); with Candida parapsilosis, 32 µg/mL (≈ 68.3 µM); in the assay on Pichia kudriavzevii, 32 µg/mL (≈ 68.3 µM). Besides, the MIC is 32 µg/mL (≈ 68.3 µM) in the assay on Nannizzia gypsea, 16 µg/mL (≈ 34.2 µM) in the assay on Trichophyton tonsurans and 32 µg/mL (≈ 68.3 µM) in the assay on Trichophyton erinacei. Moreover, the “inhibition (INH)” value in assay [1] was 3%. In assay [1] (setting [2]), the MIC90 is > 6.25 µg/mL.
